Measured values reported in US11180449B2, “Crystal form of key intermediate of bruton tyrosine kinase (BTK) inhibitor and preparation method thereof” (SHANGHAI ZAIQI BIO-TECH CO., LTD., priority 2019, dated 2021).
“Also recorded” adds a separate entry of the source.

Key:
[1] = Stability comparison between crystal forms I and II (influence factors: light, temperature, humidity); type: physicochemical; settings: for change of purity of the compound: 10 days under light, 30° C. and 40° C., 75% RH and 90% RH
[2] = Special stability of crystal form II (grinding, heating, tableting); type: physicochemical
Text: The crystal form II of a compound of formula (I) prepared according to the method of Example 2 was subjected to grinding, heating and tableting.

Structure (SMILES)	purity of the compound, 30° C. ([1]; day 0) [%]	purity of the compound, 30° C. ([1]; day 5) [%]	purity of the compound, 30° C. ([1]; day 10) [%]	purity of the compound, 30° C. ([1]; day 30) [%]	purity of the compound, 40° C. ([1]; day 0) [%]	purity of the compound, 40° C. ([1]; day 5) [%]	purity of the compound, 40° C. ([1]; day 10) [%]	purity of the compound, 40° C. ([1]; day 30) [%]	change of purity of the compound [1]	purity of the compound, Illumination ([1]; open condition, day 0) [%]	purity of the compound, Illumination ([1]; open condition, day 5) [%]	purity of the compound, Illumination ([1]; open condition, day 10) [%]	purity of the compound, Illumination ([1]; open condition, day 30) [%]	purity of the compound, RH75% ([1]; day 0) [%]	purity of the compound, RH75% ([1]; day 5) [%]	purity of the compound, RH75% ([1]; day 10) [%]	purity of the compound, RH75% ([1]; day 30) [%]	purity of the compound, RH90% ([1]; day 0) [%]	purity of the compound, RH90% ([1]; day 5) [%]	purity of the compound, RH90% ([1]; day 10) [%]	further results
CCOC(=O)c1c(C#N)c(-c2ccc(Oc3c(F)cccc3F)cc2)cn1[C@@H]1CCN(C(=O)OC(C)(C)C)C1 [Crystal form I]	99.31	99.23	99.10	98.87	99.31	99.18	99.05	95.01	not obviously changed	99.31	97.75	95.53	85.76	99.31	99.18	98.97	97.41	99.31	98.91	98.51	purity of the compound, RH90% ([1]; day 30): 95.91%; crystal form re-tested after the influence factor experiment [1]: not changed
CCOC(=O)c1c(C#N)c(-c2ccc(Oc3c(F)cccc3F)cc2)cn1[C@@H]1CCN(C(=O)OC(C)(C)C)C1 [Crystal form II]	99.73	99.72	99.72	99.67	99.73	99.68	99.65	99.60	not obviously changed	99.73	99.56	99.43	99.21	99.73	99.72	99.68	99.64	99.73	99.71	99.61	XRD detection (crystal form after treatment) ([2]; Grinding for 10 min in a mortar under nitrogen protection): Crystal; XRD detection (crystal form after treatment) ([2]; Tableting): Crystal; stability of the crystal form under mechanical treatment ([2]; grinding, heating and tableting (pressure)): good stability; also recorded: stable; purity of the compound, RH90% ([1]; day 30): 99.53%; crystal form re-tested after the influence factor experiment [1]: not changed; stability compared with crystal form I (amorphous sample) ([1]; open condition, light, high temperature and high humidity): significantly better
